Here are results for two compounds from PMC4322620 (Frontiers in Pharmacology, 2015).

Where a SMILES comes first, the peptide text is derived from it. [ ]: non-standard residue; d: D form. The star is where a group is joined. X1 = CC(=O)N[C@@H]1[C@@H](O[C@@H]2O[C@H](CO)[C@H](O)[C@H](O)[C@H]2O)[C@@H](O)[C@@H](CO)O[C@@H]1*; X2 = CC12CC3CC(C)(C1)CC(N*)(C3)C2; pGlu = O=C1CC[C@@H](C(=O)O)N1

One data set has as its system motor impairment. The settings on record: mouse, in vivo.
Data set [1] concerns the target neurotensin receptors (HT-29 cells) (Homo sapiens, UniProt P30989). It counts as cell-based.
The target in the next data set is NTS1 (HT-29 cells) (Homo sapiens, UniProt P30989). The experiment in a line: cell-based.
Data set [2] can be described thus: in vitro. To be noted: rat, serum.
Data set [3] is described as follows: in vitro. The settings on record: mouse, other tissue homogenate.
Data set [4] deals with cell-surface neurotensin receptors (HT-29 cells) (Homo sapiens, UniProt P30989). In kind it is cell-based.
Sequence of cell-surface neurotensin receptors (HT-29 cells) (P30989 whole entry, looked up): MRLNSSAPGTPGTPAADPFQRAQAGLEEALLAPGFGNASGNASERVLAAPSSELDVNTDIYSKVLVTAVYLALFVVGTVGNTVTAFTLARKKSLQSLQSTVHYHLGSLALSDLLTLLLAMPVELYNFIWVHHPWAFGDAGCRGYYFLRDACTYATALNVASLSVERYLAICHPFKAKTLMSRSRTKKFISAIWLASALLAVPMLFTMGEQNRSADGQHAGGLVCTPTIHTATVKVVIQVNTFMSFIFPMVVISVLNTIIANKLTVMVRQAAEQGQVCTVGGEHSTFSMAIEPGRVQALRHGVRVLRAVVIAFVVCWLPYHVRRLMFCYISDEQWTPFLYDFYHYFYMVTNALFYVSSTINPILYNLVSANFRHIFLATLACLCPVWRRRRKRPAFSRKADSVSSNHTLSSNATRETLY

Sequence of neurotensin receptors (HT-29 cells) (P30989 whole entry, looked up): as above
Sequence of NTS1 (HT-29 cells) (P30989 whole entry, looked up): as above

As for `CC[C@H](C)[C@H](NC(=O)[C@H](Cc1ccc(O)cc1)NC(=O)[C@@H]1CCCN1C(=O)[C@H](CCCCN)NC(=O)[C@H](CCCCN)NC(=O)[C@H](CCC(=O)NC12CC3CC(C)(CC(C)(C3)C1)C2)NC(=O)[C@H](CCCCN)NC(=O)[C@H](CC(N)=O)NC(=O)[C@H](CO)NC(=O)CNC(=O)CNC(=O)[C@H](CCC(=O)O)NC(=O)[C@H](CCC(=O)O)NC(=O)[C@H](CO)NC(=O)[C@@H]1CCC(=O)N1)C(=O)N[C@@H](CC(C)C)C(=O)O` [memantine-Contulakin-G] ([pGlu]SEEGGSNKE(X2)KKPYIL-OH), the rotorod toxicity result with motor impairment was “no rotorod toxicity”.
As to `CC[C@H](C)[C@H](NC(=O)[C@H](Cc1ccc(O)cc1)NC(=O)[C@@H]1CCCN1C(=O)[C@H](CCCCN)NC(=O)[C@H](CCCCN)NC(=O)[C@@H](NC(=O)[C@H](C)NC(=O)[C@H](CC(N)=O)NC(=O)[C@H](CO)NC(=O)CNC(=O)CNC(=O)[C@H](CCC(=O)O)NC(=O)[C@H](CCC(=O)O)NC(=O)[C@H](CO)NC(=O)[C@@H]1CCC(=O)N1)[C@@H](C)O[C@H]1O[C@H](CO)[C@H](O)[C@H](O[C@@H]2O[C@H](CO)[C@H](O)[C@H](O)[C@H]2O)[C@H]1NC(C)=O)C(=O)N[C@@H](CC(C)C)C(=O)O` [Contulakin-G] ([pGlu]SEEGGSNAT(X1)KKPYIL-OH), the DC50 in data set [1] turned out to be 444 ± 41 nM. Also, the DC50/EC50 in data set [1] worked out at 14. In addition, the 50% effective concentration (EC50) (as a rule, the concentration needed to bring the measured effect to its halfway point) at NTS1 (HT-29 cells) was found to be 32.4 ± 14.5 nM. Also, the half-life – broadly, the time in which the quantity being followed falls by half – was over 960 min in the data set “in vitro [2]” and over 160 min in the data set “in vitro [3]”. In data set [4], the “levels of cell-surface neurotensin receptors after agonist exposure” value is given as “significantly higher levels”.
